Converted amounts (≈) assume the structure as drawn. The source made the active and inactive calls. The rule behind the calls is not given here.

This test deals with KB. Kind of test: Cytotoxicity against human KB cells. Format: functional, cell-based.
`C/C=C(\C)[C@@H](O)C(=O)O[C@@H]1C[C@H](C(C)(C)O)[C@](C)(CCC(=O)OC)[C@H]2[C@H](OC(=O)[C@H](O)[C@H](C)CC)C[C@]3(C)C(=CC[C@H]3[C@H]3CO[C@H](C=C(C)C)C3)[C@@]21C` [ARGENTINIC ACID D METHYL ESTER] came in with an IC50 of 1 µg/mL (≈ 1.34 µM).

For `C/C=C(\C)[C@@H](O)C(=O)O[C@@H]1C[C@H](C(C)(C)O)[C@](C)(CCC(=O)O)[C@H]2[C@H](OC(=O)[C@H](O)C(C)C)C[C@]3(C)C(=CC[C@H]3[C@H]3CO[C@H](C=C(C)C)C3)[C@@]21C`, the outcome was inactive. As to `C/C=C(/C)[C@@H](O)C(=O)O[C@@H]1C[C@H](C(C)(C)O)[C@](C)(CCC(=O)OC)[C@H]2[C@H](OC(=O)[C@H](O)/C(C)=C/C)C[C@]3(C)C(=CC[C@H]3[C@H]3CO[C@H](C=C(C)C)C3)[C@@]21C` [ARGENTINIC ACID H METHYL ESTER], the midpoint of inhibition, the IC50, lay at 2 µg/mL (≈ 2.69 µM). On to `CC(C)=C[C@@H]1C[C@@H]([C@@H]2CC=C3[C@@]4(C)[C@H](CC[C@]32C)[C@@](C)(CCC(=O)O)[C@@H](C(C)(C)O)C[C@H]4OC(=O)[C@H](O)C(C)C)CO1`, for which the outcome was inactive. `CC[C@@H](C)[C@@H](O)C(=O)O[C@@H]1C[C@]2(C)C(=CC[C@H]2[C@H]2CO[C@H](C=C(C)C)C2)[C@@]2(C)[C@H]1[C@@](C)(CCC(=O)OC)[C@@H](C(C)(C)O)C[C@H]2OC(=O)[C@H](O)C(C)C` [ARGENTINIC ACID F METHYL ESTER] had an IC50 of 2 µg/mL (≈ 2.73 µM). On to `C/C=C(\C)[C@@H](O)C(=O)O[C@@H]1C[C@H](C(C)(C)O)[C@](C)(CCC(=O)O)[C@H]2CC[C@]3(C)C(=CC[C@H]3[C@H]3CO[C@H](C=C(C)C)C3)[C@@]21C`, for which the outcome was inactive. Turning to `CC[C@@H](C)[C@@H](O)C(=O)O[C@@H]1C[C@H](C(C)(C)O)[C@](C)(CCC(=O)O)[C@H]2CC[C@]3(C)C(=CC[C@H]3[C@H]3CO[C@H](C=C(C)C)C3)[C@@]21C`, the result was inactive. In the case of `C/C=C(/C)[C@@H](O)C(=O)O[C@@H]1C[C@H](C(C)(C)O)[C@](C)(CCC(=O)O)[C@H]2[C@H](OC(=O)[C@H](O)/C(C)=C/C)C[C@]3(C)C(=CC[C@H]3[C@H]3CO[C@H](C=C(C)C)C3)[C@@]21C`, the outcome was inactive. On the same count and under the same terms, next, `CC[C@@H](C)[C@@H](O)C(=O)O[C@@H]1C[C@]2(C)C(=CC[C@H]2[C@H]2CO[C@H](C=C(C)C)C2)[C@@]2(C)[C@H]1[C@@](C)(CCC(=O)O)[C@@H](C(C)(C)O)C[C@H]2OC(=O)[C@H](O)C(C)C`: “inactive”. Take `COC(=O)CC[C@@]1(C)[C@@H](C(C)(C)O)C[C@@H](OC(=O)[C@H](O)C(C)C)[C@@]2(C)C3=CC[C@@H]([C@H]4CO[C@H](C=C(C)C)C4)[C@]3(C)CC[C@H]12` [ARGENTINIC ACID B METHYL ESTER]: the IC50 was found to be 2 µg/mL (≈ 3.32 µM). Still for that read-out and setting: next, `CC[C@@H](C)[C@@H](O)C(=O)O[C@@H]1C[C@]2(C)C(=CC[C@H]2[C@H]2CO[C@H](C=C(C)C)C2)[C@@]2(C)[C@H]1[C@@](C)(CCC(=O)OC)[C@@H](C(C)(C)O)C[C@H]2OC(=O)[C@H](O)[C@H](C)CC` [ARGENTINIC ACID G METHYL ESTER]: 2.5 µg/mL (≈ 3.35 µM).

Compound `C/C=C(\C)[C@@H](O)C(=O)O[C@@H]1C[C@H](C(C)(C)O)[C@](C)(CCC(=O)OC)[C@H]2[C@H](OC(=O)[C@H](O)C(C)C)C[C@]3(C)C(=CC[C@H]3[C@H]3CO[C@H](C=C(C)C)C3)[C@@]21C` [ARGENTINIC ACID E METHYL ESTER] came in with an IC50 of 3.5 µg/mL (≈ 4.79 µM).

In the case of `C/C=C(\C)[C@@H](O)C(=O)O[C@@H]1C[C@H](C(C)(C)O)[C@](C)(CCC(=O)OC)[C@H]2CC[C@]3(C)C(=CC[C@H]3[C@H]3CO[C@H](C=C(C)C)C3)[C@@]21C` [ARGENTINIC ACID C METHYL ESTER], the IC50 turned out to be 2 µg/mL (≈ 3.25 µM).

Take `CC[C@@H](C)[C@@H](O)C(=O)O[C@@H]1C[C@]2(C)C(=CC[C@H]2[C@H]2CO[C@H](C=C(C)C)C2)[C@@]2(C)[C@H]1[C@@](C)(CCC(=O)O)[C@@H](C(C)(C)O)C[C@H]2OC(=O)[C@H](O)[C@H](C)CC`: the result was inactive.

`CC[C@@H](C)[C@@H](O)C(=O)O[C@@H]1C[C@H](C(C)(C)O)[C@](C)(CCC(=O)OC)[C@H]2CC[C@]3(C)C(=CC[C@H]3[C@H]3CO[C@H](C=C(C)C)C3)[C@@]21C` [ARGENTINIC ACID A METHYL ESTER]: half-maximal inhibition (IC50) required 2 µg/mL (≈ 3.24 µM). On to `C/C=C(\C)[C@@H](O)C(=O)O[C@@H]1C[C@H](C(C)(C)O)[C@](C)(CCC(=O)O)[C@H]2[C@H](OC(=O)[C@H](O)[C@H](C)CC)C[C@]3(C)C(=CC[C@H]3[C@H]3CO[C@H](C=C(C)C)C3)[C@@]21C`, for which the result was inactive.

Source of the values: ChEMBL document CHEMBL1144052, “Cytotoxic 3,4-secoapotirucallanes from Aaglaia argentea bark” (J Nat Prod, 1999).
